Source: ChEMBL document CHEMBL3044652, “Synthesis of novel 2-alkyl-4-substituted-amino-pyrazolo[3,4-d]pyrimidines as new leads for anti-bacterial and anti-cancer activity” (2013)

What was measured:
Format in all cases: functional
Staphylococcus aureus = assay: Antibacterial activity against Staphylococcus aureus NCIM 5021 at 20 ug/ml after 24 hr by agar diffusion method; conditions: NCIM 5021, 24 h, read-out: IZ
[1] = tested on: Staphylococcus epidermidis; assay: Antibacterial activity against Staphylococcus epidermidis NCIM 2493 at 20 ug/ml after 24 hr by agar diffusion method; conditions: NCIM 2493, 24 h, read-out: IZ
Escherichia coli = assay: Antibacterial activity against Escherichia coli NCIM 2803 at 20 ug/ml after 24 hr by agar diffusion method; conditions: NCIM 2803, 24 h, read-out: IZ
Bacillus subtilis = assay: Antibacterial activity against Bacillus subtilis NCIM 2545 at 20 ug/ml after 24 hr by agar diffusion method; conditions: NCIM 2545, 24 h, read-out: IZ
G-361 [2] = assay: Cytotoxicity against Homo sapiens (human) G361 cells assessed as cell growth at 10^-6 M by SRB assay relative to control; conditions: read-out: Activity
G-361 [3] = assay: Cytotoxicity against Homo sapiens (human) G361 cells assessed as cell growth at 10^-5 M by SRB assay relative to control; conditions: read-out: Activity
G-361 [4] = assay: Cytotoxicity against Homo sapiens (human) G361 cells assessed as cell growth at 10^-4 M by SRB assay relative to control; conditions: read-out: Activity
G-361 [5] = assay: Cytotoxicity against Homo sapiens (human) G361 cells by SRB assay
G-361 [6] = assay: Cytotoxicity against Homo sapiens (human) G361 cells assessed as cell growth at 10^-7 M by SRB assay relative to control; conditions: read-out: Activity

With `CC(C)Nc1ncnc2c1cnn2-c1ccccc1` the zone of inhibition at 20 µg/mL (Staphylococcus aureus) was 13.6 mm, the zone of inhibition at 20 µg/mL [1] was 13.6 mm and the zone of inhibition at 20 µg/mL (Escherichia coli) was 13.3 mm. The zone of inhibition at 20 µg/mL (Bacillus subtilis) was 13.3 mm.

In the case of `ClCc1nc(Cl)c2cnn(-c3ccccc3)c2n1`, the growth at 1 µM (G-361 [2]) is reported as 100%, the growth at 10 µM (G-361 [3]) is reported as 90.9% and the growth at 100 µM (G-361 [4]) is reported as -59.3%. The GI50 (G-361 [5]) was 2.08 µM, the LC50 (G-361 [5]) was greater than 100 µM and the TGI (G-361 [5]) was 33.2 µM. For the same compound, the growth at 0.1 µM (G-361 [6]) was 100%.

`CCc1nc(N2CCOCC2)c2cnn(-c3ccccc3)c2n1` gave a growth at 1 µM (G-361 [2]) of 85.5%, a growth at 10 µM (G-361 [3]) of 65.9% and a zone of inhibition at 20 µg/mL (Staphylococcus aureus) of 13 mm. For the same compound, the zone of inhibition at 20 µg/mL [1] was 13 mm, the zone of inhibition at 20 µg/mL (Escherichia coli) was 13 mm and the growth at 100 µM (G-361 [4]) was 30.9%. For the same compound, the zone of inhibition at 20 µg/mL (Bacillus subtilis) was 13.3 mm, the GI50 (G-361 [5]) was 28 µM and the LC50 (G-361 [5]) was greater than 100 µM. The TGI (G-361 [5]) was greater than 100 µM and the growth at 0.1 µM (G-361 [6]) was 100%.

Work on `CCc1nc(Nc2ccccc2)c2cnn(-c3ccccc3)c2n1` yielded a zone of inhibition at 20 µg/mL (Staphylococcus aureus) of 13.6 mm, a zone of inhibition at 20 µg/mL [1] of 13.6 mm and a zone of inhibition at 20 µg/mL (Escherichia coli) of 13.3 mm. The zone of inhibition at 20 µg/mL (Bacillus subtilis) was 13.3 mm.

For `CC(C)c1nc(Nc2ccccc2)c2cnn(-c3ccccc3)c2n1`, the growth at 1 µM (G-361 [2]) was 100%, the growth at 10 µM (G-361 [3]) was 91.9% and the zone of inhibition at 20 µg/mL (Staphylococcus aureus) was 13.3 mm. For the same compound, the zone of inhibition at 20 µg/mL [1] was 13.3 mm, the zone of inhibition at 20 µg/mL (Escherichia coli) was 12.8 mm and the growth at 100 µM (G-361 [4]) was 19.2%. The zone of inhibition at 20 µg/mL (Bacillus subtilis) was 13.5 mm, the GI50 (G-361 [5]) was 32 µM and the LC50 (G-361 [5]) was greater than 100 µM. It also gave a TGI (G-361 [5]) greater than 100 µM and a growth at 0.1 µM (G-361 [6]) of 100%.

For `CCCNCc1nc(NCCC)c2cnn(-c3ccccc3)c2n1`, the growth at 1 µM (G-361 [2]) was 99.6%, the growth at 10 µM (G-361 [3]) was 100% and the zone of inhibition at 20 µg/mL (Staphylococcus aureus) was 13.3 mm. For the same compound, the zone of inhibition at 20 µg/mL [1] was 13.3 mm, the zone of inhibition at 20 µg/mL (Escherichia coli) was 13.3 mm and the growth at 100 µM (G-361 [4]) was 75.1%. The zone of inhibition at 20 µg/mL (Bacillus subtilis) was 13.6 mm, the GI50 (G-361 [5]) was greater than 100 µM and the TGI (G-361 [5]) was greater than 100 µM. For the same compound, the growth at 0.1 µM (G-361 [6]) was 100%.

`CC(C)NCc1nc(NC(C)C)c2cnn(-c3ccccc3)c2n1` showed a growth at 1 µM (G-361 [2]) of 100%, a growth at 10 µM (G-361 [3]) of 99.7% and a zone of inhibition at 20 µg/mL (Staphylococcus aureus) of 1.3 mm. For the same compound, the zone of inhibition at 20 µg/mL [1] was 1.33 mm, the zone of inhibition at 20 µg/mL (Escherichia coli) was 13 mm and the growth at 100 µM (G-361 [4]) was 56.5%. It also gave a zone of inhibition at 20 µg/mL (Bacillus subtilis) of 13.6 mm, a GI50 (G-361 [5]) greater than 100 µM and an LC50 (G-361 [5]) greater than 100 µM. The TGI (G-361 [5]) was greater than 100 µM and the growth at 0.1 µM (G-361 [6]) was 100%.

In the case of `CCNCc1nc(NCC)c2cnn(-c3ccccc3)c2n1`, the growth at 1 µM (G-361 [2]) is reported as 100%, the growth at 10 µM (G-361 [3]) is reported as 100% and the zone of inhibition at 20 µg/mL (Staphylococcus aureus) is reported as 12.6 mm. For the same compound, the zone of inhibition at 20 µg/mL [1] was 13.6 mm, the zone of inhibition at 20 µg/mL (Escherichia coli) was 13.3 mm and the growth at 100 µM (G-361 [4]) was 87.7%. The zone of inhibition at 20 µg/mL (Bacillus subtilis) was 12.7 mm, the GI50 (G-361 [5]) was greater than 100 µM and the LC50 (G-361 [5]) was greater than 100 µM. It also gave a TGI (G-361 [5]) greater than 100 µM and a growth at 0.1 µM (G-361 [6]) of 100%.

`c1ccc(-n2ncc3c(N4CCOCC4)nc(CN4CCOCC4)nc32)cc1` showed a growth at 1 µM (G-361 [2]) of 99.6%, a growth at 10 µM (G-361 [3]) of 94.3% and a zone of inhibition at 20 µg/mL (Staphylococcus aureus) of 13.6 mm. The zone of inhibition at 20 µg/mL [1] was 13.3 mm, the zone of inhibition at 20 µg/mL (Escherichia coli) was 13.6 mm and the growth at 100 µM (G-361 [4]) was 47.6%. For the same compound, the zone of inhibition at 20 µg/mL (Bacillus subtilis) was 13 mm, the GI50 (G-361 [5]) was greater than 100 µM and the LC50 (G-361 [5]) was greater than 100 µM. For the same compound, the TGI (G-361 [5]) was greater than 100 µM and the growth at 0.1 µM (G-361 [6]) was 99.7%.

Work on `c1ccc(NCc2nc(Nc3ccccc3)c3cnn(-c4ccccc4)c3n2)cc1` yielded a growth at 1 µM (G-361 [2]) of 100%, a growth at 10 µM (G-361 [3]) of 99.7% and a zone of inhibition at 20 µg/mL (Staphylococcus aureus) of 13.2 mm. For the same compound, the zone of inhibition at 20 µg/mL [1] was 13 mm, the zone of inhibition at 20 µg/mL (Escherichia coli) was 13.3 mm and the growth at 100 µM (G-361 [4]) was 48.5%. The zone of inhibition at 20 µg/mL (Bacillus subtilis) was 13.6 mm, the GI50 (G-361 [5]) was greater than 100 µM and the LC50 (G-361 [5]) was greater than 100 µM. The TGI (G-361 [5]) was greater than 100 µM and the growth at 0.1 µM (G-361 [6]) was 100%.

`COc1ccccc1Nc1nc(C)nc2c1cnn2-c1ccccc1` gave a zone of inhibition at 20 µg/mL (Staphylococcus aureus) of 13.3 mm, a zone of inhibition at 20 µg/mL [1] of 13.6 mm and a zone of inhibition at 20 µg/mL (Escherichia coli) of 13.5 mm. For the same compound, the zone of inhibition at 20 µg/mL (Bacillus subtilis) was 13.4 mm.

`COc1cccc2c1C(=O)c1c(O)c3c(c(O)c1C2=O)C[C@@](O)(C(=O)CO)C[C@@H]3O[C@H]1C[C@H](N)[C@H](O)[C@H](C)O1` [DOXORUBICIN] gave a growth at 1 µM (G-361 [2]) of -62.5%, a growth at 10 µM (G-361 [3]) of -64.2% and a growth at 100 µM (G-361 [4]) of -70.7%. It also gave a GI50 (G-361 [5]) of less than 0.1 µM, a TGI (G-361 [5]) of less than 0.1 µM and a growth at 0.1 µM (G-361 [6]) of -24%.
